What was measured:
[1] = test system: E. coli; experiment: Minimum Inhibitory Concentration (MIC) assay, broth microdilution and alamar blue; type: cell-based; details: single-active controls; 24 hours incubation
[2] = test system: X. alfalfae; experiment: as above; type: cell-based; details: single-active controls; 24 hours incubation
Experimental: Although not depicted in the figures, the antimicrobial properties of LSP materials and components were studied using standard microbiological technique to determine the Minimum Inhibitory Concentration (MIC). Samples were tested against Gram-negative Xanthomonas alfalfae subsp. citrumelonis strain F1 (ATCC 49120, a citrus canker surrogate), Gram-negative Pseudomonas syringae pv. syringae (ATCC 19310, causative agent of bacterial speck in Lilac, almond, apricots, peaches and wild beans among others) and Gram positive Clavibacter michiganensis subsp. michiganensis (ATCC 10202, causative agent of bacterial wilt and canker in Tomato sp). X. alfalfae and P. syringae were maintained with nutrient agar and broth while C. michiganensis was grown with brain heart infusion (BHI) media. All bacteria were grown at 26° C. in a shaking incubator (150 rpm).
Minimum Inhibitory Concentration (MIC) Assay
MIC was determined using two different methods: • a. Broth microdilution: Protocols as delineated by the Clinical and Laboratory Standards Institute (CLSI) were followed for conducting MIC studies to be in compliance with American Society of Microbiology guidelines. […] Since broth microdilution is based only on light absorbance, low concentration of bacteria can fall below the detection limit of the traditional optical density measurement. […]

| SMILES | MIC E. coli [1] | MIC X. alfalfae [2] |
| --- | --- | --- |
| O=S(=O)([O-])[O-].[Cu+2] [CuSO4] | 250-500 μg active/mL | 125-250 μg active/mL |
| CCCCCCCCCC[N+](C)(C)CCCCCCCCCC.[Cl-] [Quat, Didecyl Dimethyl Ammonium Chloride] | 2-4 μg active/mL | 2-4 μg active/mL |
